Test results taken from the supplement of paper PMC10307832.

Legend:
Test in all cases: relative viability (nuclei count vs DMSO), 5 days (fraction); higher = more cells survive
[1] = compound: COc1ccc(-c2ccc3c(N4CCOC[C@@H]4C)nc(N4CCOC[C@@H]4C)nc3n2)cc1CO [AZD8055] + CC(=O)Nc1cccc(-n2c(=O)n(C3CC3)c(=O)c3c(Nc4ccc(I)cc4F)n(C)c(=O)c(C)c32)c1 [Trametinib] (partner 0.02 µM)
Procedure, shortened: (§1)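 Relative viability is defined as nuclei in treated wells over nuclei in vehicle wells. Duplicate plates were run and medians reported. Lung cancer cell lines in 1536-well plates were dosed by pin tool one day after seeding, with one drug or with a fixed anchor-drug dose plus five library-drug doses (not always all listed) in √10 steps, and nuclei were counted after 5 days.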

[2] = compound: COc1ccc(-c2ccc3c(N4CCOC[C@@H]4C)nc(N4CCOC[C@@H]4C)nc3n2)cc1CO [AZD8055] + O=C(c1cc(Cc2n[nH]c(=O)c3ccccc23)ccc1F)N1CCN(C(=O)C2CC2)CC1 [Olaparib] (partner 8 µM)
Procedure, shortened: as §1

[3] = compound: COc1ccc(-c2ccc3c(N4CCOC[C@@H]4C)nc(N4CCOC[C@@H]4C)nc3n2)cc1CO [AZD8055] + CS(=O)(=O)CCNCc1ccc(-c2ccc3ncnc(Nc4ccc(OCc5cccc(F)c5)c(Cl)c4)c3c2)o1 [Lapatinib] (partner 2 µM)
Procedure, shortened: as §1

[4] = compound: COc1ccc(-c2ccc3c(N4CCOC[C@@H]4C)nc(N4CCOC[C@@H]4C)nc3n2)cc1CO [AZD8055] + N=C(N)NC(=N)NCCc1ccccc1 [Phenformin] (partner 250 µM)
Procedure, shortened: as §1

Cell Line	relative viability ([1]; first compound 0.01 µM)	relative viability ([1]; first compound 0.03162 µM)	relative viability ([1]; first compound 0.1 µM)	relative viability ([1]; first compound 0.3162 µM)	relative viability ([1]; first compound 1 µM)	relative viability ([2]; first compound 0.01 µM)	relative viability ([2]; first compound 0.03162 µM)	relative viability ([2]; first compound 0.1 µM)	relative viability ([2]; first compound 0.3162 µM)	relative viability ([2]; first compound 1 µM)	relative viability ([3]; first compound 0.01 µM)	relative viability ([3]; first compound 0.03162 µM)	relative viability ([3]; first compound 0.1 µM)	relative viability ([3]; first compound 0.3162 µM)	relative viability ([3]; first compound 1 µM)	relative viability ([4]; first compound 0.01 µM)	relative viability ([4]; first compound 0.03162 µM)	relative viability ([4]; first compound 0.1 µM)	relative viability ([4]; first compound 0.3162 µM)	relative viability ([4]; first compound 1 µM)
NCI-H1944	0.411	0.378	0.292	0.228	0.191	0.41	0.428	0.393	0.254	0.259	0.766	0.655	0.615	0.367	0.336	0.193	0.2	0.187	0.148	0.129
HARA	–	0.671	0.497	0.285	0.223	–	0.687	0.58	0.39	0.246	0.75	0.614	0.408	0.326	0.224	0.548	0.478	0.5	0.307	0.215
NCI-H2126	0.544	0.469	0.424	0.294	0.359	0.916	0.833	0.709	0.493	0.363	0.653	0.679	0.615	0.453	0.425	0.488	0.503	0.438	0.349	0.379
LXF-289	0.75	0.606	0.627	0.392	0.333	1.07	1.01	0.928	0.641	0.57	0.939	0.903	0.846	0.804	0.708	0.539	0.534	0.508	0.458	0.385
NCI-H460	0.144	0.129	0.0855	0.0696	0.0537	0.444	0.409	0.371	0.254	0.216	1.72	0.629	0.43	0.137	0.0984	0.609	0.474	0.124	0.049	0.034
NCI-H1395	0.977	0.793	0.712	0.514	0.544	0.479	0.412	0.407	0.358	0.432	0.939	0.776	0.771	0.616	0.462	0.447	0.396	0.333	0.394	0.374
NCI-H2170	0.957	0.864	0.614	0.222	0.159	0.67	0.572	0.37	0.198	0.183	0.242	0.231	0.229	0.231	0.228	0.438	0.437	0.471	0.407	0.341
NCI-H2009	0.249	0.248	0.205	0.14	0.141	0.677	0.861	0.634	0.344	0.254	1.15	0.74	0.919	0.396	0.316	0.508	0.455	0.486	0.294	0.228
